Like-named read-outs stand apart in the source and are kept apart here.
Experiments:
[1] = system: Key Broadleaf Weed and Crop Species; assay: Post-emergent Test II herbicidal activity (Table 15); type: in vivo; details: post-emergence, 336 h, 14 d; for pest or weed control at 35 g/ha: 35 g ai/ha; for pest or weed control at 70 g/ha: 70 g ai/ha; for pest or weed control at 140 g/ha: 140 g ai/ha
Method in brief: (§1)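 Visual injury rating (0 = none, 100% = complete kill) made 14 d after treatment, relative to untreated plants. Compounds in an acetone/DMSO/aqueous crop-oil/surfactant spray, at top rate and serial 1/2×-1/16× rates, were applied at 187 L/ha overhead to first-second true leaf plants raised 7-21 d in greenhouse.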

[2] = system: Key Grass and Sedge Weeds as well as Grass Crops; assay: Post-emergent Test II herbicidal activity (Table 16); type: in vivo; details: post-emergence, 336 h, 14 d; for pest or weed control at 35 g/ha: 35 g ai/ha; for pest or weed control at 70 g/ha: 70 g ai/ha; for pest or weed control at 140 g/ha: 140 g ai/ha
Method in brief: as §1

[3] = Abutilon theophrasti, velvetleaf (Abutilon theophrasti), read-out: Visual Growth Reduction (%) 14 Days After Application, ABUTH
[4] = Amaranthus retroflexus, redroot pigweed (Amaranthus retroflexus), read-out: Visual Growth Reduction (%) 14 Days After Application, AMARE
[5] = Brassica napus, oilseed rape, canola (Brassica napus), read-out: Visual Growth Reduction (%) 14 Days After Application, BRSNN
[6] = Chenopodium album, lambsquarters (Chenopodium album), read-out: Visual Growth Reduction (%) 14 Days After Application, CHEAL
[7] = Euphorbia heterophylla, wild poinsettia (Euphorbia heterophylla), read-out: Visual Growth Reduction (%) 14 Days After Application, EPHHL
[8] = Helianthus annuus, sunflower (Helianthus annuus), read-out: Visual Growth Reduction (%) 14 Days After Application, HELAN
[9] = Cyperus esculentus, yellow nutsedge (Cyperus esculentus), read-out: Visual Growth Reduction (%) 14 Days After Application, CYPES
[10] = Echinochloa crus-galli, barnyardgrass (Echinochloa crus-galli), read-out: Visual Growth Reduction (%) 14 Days After Application, ECHCG
[11] = Oryza sativa, rice (Oryza sativa), read-out: Visual Growth Reduction (%) 14 Days After Application, ORYSA
[12] = Setaria faberi, giant foxtail (Setaria faberi), read-out: Visual Growth Reduction (%) 14 Days After Application, SETFA
[13] = Triticum aestivum, wheat, spring (Triticum aestivum), read-out: Visual Growth Reduction (%) 14 Days After Application, TRZAS
[14] = Zea mays, maize, corn (Zea mays), read-out: Visual Growth Reduction (%) 14 Days After Application, ZEAMX

SMILES	pest or weed control at 35 g/ha [1, 3] [%]	pest or weed control at 70 g/ha [1, 3] [%]	pest or weed control at 140 g/ha [1, 3] [%]	pest or weed control at 35 g/ha [1, 4] [%]	pest or weed control at 70 g/ha [1, 4] [%]	pest or weed control at 140 g/ha [1, 4] [%]	pest or weed control at 35 g/ha [1, 5] [%]	pest or weed control at 70 g/ha [1, 5] [%]	pest or weed control at 140 g/ha [1, 5] [%]	pest or weed control at 35 g/ha [1, 6] [%]	pest or weed control at 70 g/ha [1, 6] [%]	pest or weed control at 140 g/ha [1, 6] [%]	pest or weed control at 35 g/ha [1, 7] [%]	pest or weed control at 70 g/ha [1, 7] [%]	pest or weed control at 140 g/ha [1, 7] [%]	pest or weed control at 35 g/ha [1, 8] [%]	pest or weed control at 70 g/ha [1, 8] [%]	pest or weed control at 140 g/ha [1, 8] [%]	pest or weed control at 35 g/ha [2, 9] [%]	pest or weed control at 70 g/ha [2, 9] [%]	further results
COC(=O)c1nc(-c2c(F)cc3cc[nH]c3c2F)cc(N)c1Cl [Compound 1.27, Methyl 4-amino-3-chloro-6-(5,7-difluoro-1H-indol-6-yl)picolinate]	60 to 74	85 to 94	85 to 94	60 to 74	95 to 100	95 to 100	85 to 94	95 to 100	95 to 100	85 to 94	85 to 94	85 to 94	95 to 100	95 to 100	95 to 100	0 to 29	0 to 29	0 to 29	0 to 29	0 to 29	pest or weed control at 140 g/ha [2, 9]: 0 to 29%; pest or weed control at 35 g/ha [2, 10]: 0 to 29%; pest or weed control at 70 g/ha [2, 10]: 0 to 29%; pest or weed control at 140 g/ha [2, 10]: 0 to 29%; pest or weed control at 35 g/ha [2, 11]: 0 to 29%; pest or weed control at 70 g/ha [2, 11]: 0 to 29%; pest or weed control at 140 g/ha [2, 11]: 0 to 29%; pest or weed control at 35 g/ha [2, 12]: 0 to 29%; pest or weed control at 70 g/ha [2, 12]: 0 to 29%; pest or weed control at 140 g/ha [2, 12]: 0 to 29%; pest or weed control at 35 g/ha [2, 13]: 0 to 29%; pest or weed control at 70 g/ha [2, 13]: 0 to 29%; pest or weed control at 140 g/ha [2, 13]: 0 to 29%; pest or weed control at 35 g/ha [2, 14]: 0 to 29%; pest or weed control at 70 g/ha [2, 14]: 0 to 29%; pest or weed control at 140 g/ha [2, 14]: 0 to 29%; melting point: 169 to 171 °C
Nc1cc(-c2cc3[nH]ccc3cc2F)nc(C(=O)O)c1Cl [Compound 1.26]	0 to 29	0 to 29	0 to 29	75 to 84	85 to 94	95 to 100	85 to 94	95 to 100	95 to 100	0 to 29	30 to 44	30 to 44	0 to 29	30 to 44	45 to 59	0 to 29	0 to 29	0 to 29	0 to 29	0 to 29	pest or weed control at 140 g/ha [2, 9]: 0 to 29%; pest or weed control at 35 g/ha [2, 10]: 0 to 29%; pest or weed control at 70 g/ha [2, 10]: 0 to 29%; pest or weed control at 140 g/ha [2, 10]: 0 to 29%; pest or weed control at 35 g/ha [2, 11]: 0 to 29%; pest or weed control at 70 g/ha [2, 11]: 0 to 29%; pest or weed control at 140 g/ha [2, 11]: 0 to 29%; pest or weed control at 35 g/ha [2, 12]: 0 to 29%; pest or weed control at 70 g/ha [2, 12]: 0 to 29%; pest or weed control at 140 g/ha [2, 12]: 0 to 29%; pest or weed control at 35 g/ha [2, 13]: 0 to 29%; pest or weed control at 70 g/ha [2, 13]: 0 to 29%; pest or weed control at 140 g/ha [2, 13]: 0 to 29%; pest or weed control at 35 g/ha [2, 14]: 0 to 29%; pest or weed control at 70 g/ha [2, 14]: 0 to 29%; pest or weed control at 140 g/ha [2, 14]: 0 to 29%

Reference: patent US20170050957A1, “4-AMINO-6-(HETEROCYCLIC)PICOLINATES AND 6-AMINO-2-(HETEROCYCLIC)PYRIMIDINE-4-CARBOXYLATES AND THEIR USE AS HERBICIDES” (Dow AgroSciences LLC, priority 2013, published 2017)
